Measured values reported in ChEMBL document CHEMBL3352446, “Sulforaphane homologues: Enantiodivergent synthesis of both enantiomers, activation of the Nrf2 transcription factor and selective cytotoxic activity” (Eur J Med Chem, 2014).
Active and inactive are the calls of the source. The rule behind the calls is not given here.

Legend:
[1] = target: T1, Nuclear factor erythroid 2-related factor 2 (Homo sapiens) (UniProt Q16236); experiment: Activation of NRF2 in human HaCaT cells expressing rat NQO1 assessed as induction of NQO1 expression at 50 nM to 5 uM incubated for 24 hrs by ARE-driven luciferase reporter gene assay; assay type: cell-based
T1 sequence (whole entry): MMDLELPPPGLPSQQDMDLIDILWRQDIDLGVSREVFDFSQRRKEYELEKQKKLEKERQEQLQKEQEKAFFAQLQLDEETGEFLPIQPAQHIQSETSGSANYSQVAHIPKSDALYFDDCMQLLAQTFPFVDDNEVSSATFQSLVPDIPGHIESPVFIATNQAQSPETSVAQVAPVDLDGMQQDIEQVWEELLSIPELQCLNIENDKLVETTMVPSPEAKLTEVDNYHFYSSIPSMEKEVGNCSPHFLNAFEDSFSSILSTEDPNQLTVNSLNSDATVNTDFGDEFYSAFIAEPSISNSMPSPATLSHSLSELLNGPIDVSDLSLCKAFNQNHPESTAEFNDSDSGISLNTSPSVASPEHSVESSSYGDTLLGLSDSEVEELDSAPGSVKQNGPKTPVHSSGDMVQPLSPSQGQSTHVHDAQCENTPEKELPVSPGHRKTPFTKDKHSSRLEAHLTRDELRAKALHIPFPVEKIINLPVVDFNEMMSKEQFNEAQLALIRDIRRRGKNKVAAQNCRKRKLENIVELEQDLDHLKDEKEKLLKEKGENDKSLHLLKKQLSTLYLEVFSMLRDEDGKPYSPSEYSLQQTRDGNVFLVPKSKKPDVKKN

[2] = tested on: HaCaT; experiment: Toxicity in human HaCaT cells expressing rat NQO1 assessed as reduction in cell viability at 50 uM incubated for 24 hrs by MTT assay; assay type: cell-based
[3] = tested on: HaCaT; experiment: Toxicity in human HaCaT cells expressing rat NQO1 assessed as reduction in cell viability at 500 uM incubated for 24 hrs by MTT assay; assay type: cell-based
[4] = tested on: A549; experiment: Cytotoxicity against human A549 cells assessed as reduction in cell viability after 48 hrs by MTT assay; assay type: functional, cell-based; settings: A549, 48 h
[5] = tested on: MRC5; experiment: Cytotoxicity against human MRC5 cells assessed as reduction in cell viability after 48 hrs by MTT assay; assay type: cell-based; settings: MRC5, 48 h
[6] = tested on: A549; experiment: Cytotoxicity against human A549 cells assessed as reduction in cell viability at 10 uM after 48 hrs by inverted microscopy; assay type: functional
[7] = tested on: MRC5; experiment: Cytotoxicity against human MRC5 cells assessed as reduction in cell viability at 10 uM after 48 hrs by inverted microscopy; assay type: cell-based; settings: mrc5, 48 h
[8] = Cytotoxicity against human MRC5 cells assessed as cell viability at 10 uM after 48 hrs by inverted microscopy; assay type: cell-based; settings: read-out: Activity

Compound	Activity [1]	Activity [2]	Activity [3]	IC50 [4] [µM]	IC50 [5] [µM]	growth inhibition (GI) [6]	growth inhibition (GI) [7]	viability at 48 h, 10 µM [8] [%]
C[S@+]([O-])CCCCCCN=C=S	Active							
C[S@+]([O-])CCCCCN=C=S	Active	Toxic	Toxic	12	20.2			
CCCC[S@@+]([O-])CCCCN=C=S	Active	Toxic	Toxic	9.77	17.4	Active	Non-toxic	90
CC(O)C(=O)O (configuration not stated) [LACTIC ACID]				26.6	23.9			
C[S@@+]([O-])CCCCCCN=C=S	Active							
C[S@@+]([O-])CCCCCN=C=S	Active	Toxic	Toxic	9.62	18.5			
CC[S@@+]([O-])CCCCN=C=S (racemic)	Active	Toxic	Toxic	19.8	40.8			
C[S@@](=O)CCCCN=C=S [SULFORAPHANE]	Active	Toxic	Toxic	19.6	46.6			
